Test results as given in PubChem BioAssay (NCI).
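At the GI50, growth is halved. TGI: concentration producing complete growth inhibition.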

What was measured:
Test in all cases: DTP human tumour cell line panel, 384-well format
CAKI-1 renal = tested on: CAKI-1 renal
OVCAR-8 ovarian = tested on: OVCAR-8 ovarian
CCRF-CEM leukemia = tested on: CCRF-CEM leukemia
MDA-MB-468 breast = tested on: MDA-MB-468 breast
MDA-MB-231 breast = tested on: MDA-MB-231 breast
OVCAR-3 ovarian = tested on: OVCAR-3 ovarian
NCI-H226 lung = tested on: NCI-H226 lung
MOLT-4 leukemia = tested on: MOLT-4 leukemia
MCF7 breast = tested on: MCF7 breast
KM12 colon = tested on: KM12 colon
RXF 393 renal = tested on: RXF 393 renal
NCI/ADR-RES ovarian = tested on: NCI/ADR-RES ovarian
DU-145 prostate = tested on: DU-145 prostate
UACC-62 melanoma = tested on: UACC-62 melanoma
HCT-15 colon = tested on: HCT-15 colon
T-47D breast = tested on: T-47D breast
EKVX NSCLC = tested on: EKVX NSCLC
SK-OV-3 ovarian = tested on: SK-OV-3 ovarian
U251 glioblastoma = tested on: U251 glioblastoma
PC-3 prostate = tested on: PC-3 prostate
HCT-116 colon = tested on: HCT-116 colon
LOX IMVI melanoma = tested on: LOX IMVI melanoma
A549 NSCLC = tested on: A549 NSCLC
M14 melanoma = tested on: M14 melanoma
HS 578T breast = tested on: HS 578T breast
SNB-19 CNS = tested on: SNB-19 CNS
NCI-H460 NSCLC = tested on: NCI-H460 NSCLC
NCI-H322M lung = tested on: NCI-H322M lung
786-0 renal = tested on: 786-0 renal
UACC-257 melanoma = tested on: UACC-257 melanoma
SF-268 CNS = tested on: SF-268 CNS
COLO 205 colon = tested on: COLO 205 colon
HOP-92 NSCLC = tested on: HOP-92 NSCLC
ACHN renal = tested on: ACHN renal
UO-31 renal = tested on: UO-31 renal
IGROV1 ovarian = tested on: IGROV1 ovarian
TK-10 renal = tested on: TK-10 renal
BT-549 breast = tested on: BT-549 breast
SK-MEL-5 melanoma = tested on: SK-MEL-5 melanoma
SF-295 CNS = tested on: SF-295 CNS
SF-539 CNS = tested on: SF-539 CNS
RPMI-8226 leukemia = tested on: RPMI-8226 leukemia
OVCAR-4 ovarian = tested on: OVCAR-4 ovarian
SR leukemia = tested on: SR leukemia
SN12C renal = tested on: SN12C renal
A498 renal = tested on: A498 renal
HL-60(TB) leukemia = tested on: HL-60(TB) leukemia
OVCAR-5 ovarian = tested on: OVCAR-5 ovarian
HCC-2998 colon = tested on: HCC-2998 colon
HOP-62 NSCLC = tested on: HOP-62 NSCLC
HT29 colon = tested on: HT29 colon
MDA-MB-435 melanoma = tested on: MDA-MB-435 melanoma
SW-620 colon = tested on: SW-620 colon
NCI-H522 lung = tested on: NCI-H522 lung
SK-MEL-28 melanoma = tested on: SK-MEL-28 melanoma
MALME-3M melanoma = tested on: MALME-3M melanoma
NCI-H23 lung = tested on: NCI-H23 lung
SNB-75 CNS = tested on: SNB-75 CNS

Nc1cccc2c1C(=O)N(C1CCC(=O)NC1=O)C2=O (stereo not given)
GI50 (CAKI-1 renal): > 100 µM
TGI (CAKI-1 renal): > 100 µM
GI50 (OVCAR-8 ovarian): > 100 µM
TGI (OVCAR-8 ovarian): > 100 µM
GI50 (CCRF-CEM leukemia): > 100 µM
TGI (CCRF-CEM leukemia): > 100 µM
GI50 (MDA-MB-468 breast): > 100 µM
TGI (MDA-MB-468 breast): > 100 µM
GI50 (MDA-MB-231 breast): > 100 µM
TGI (MDA-MB-231 breast): > 100 µM
GI50 (OVCAR-3 ovarian): > 100 µM
TGI (OVCAR-3 ovarian): > 100 µM
GI50 (NCI-H226 lung): > 100 µM
TGI (NCI-H226 lung): > 100 µM
GI50 (MOLT-4 leukemia): > 100 µM
TGI (MOLT-4 leukemia): > 100 µM
GI50 (MCF7 breast): > 100 µM
TGI (MCF7 breast): > 100 µM
GI50 (KM12 colon): > 100 µM
TGI (KM12 colon): > 100 µM
GI50 (RXF 393 renal): > 100 µM
TGI (RXF 393 renal): > 100 µM
GI50 (NCI/ADR-RES ovarian): > 100 µM
TGI (NCI/ADR-RES ovarian): > 100 µM
GI50 (DU-145 prostate): > 100 µM
TGI (DU-145 prostate): > 100 µM
GI50 (UACC-62 melanoma): > 100 µM
TGI (UACC-62 melanoma): > 100 µM
GI50 (HCT-15 colon): > 100 µM
TGI (HCT-15 colon): > 100 µM
GI50 (T-47D breast): > 100 µM
TGI (T-47D breast): > 100 µM
GI50 (EKVX NSCLC): > 100 µM
TGI (EKVX NSCLC): > 100 µM
GI50 (SK-OV-3 ovarian): > 100 µM
TGI (SK-OV-3 ovarian): > 100 µM
GI50 (U251 glioblastoma): > 100 µM
TGI (U251 glioblastoma): > 100 µM
GI50 (PC-3 prostate): > 100 µM
TGI (PC-3 prostate): > 100 µM
GI50 (HCT-116 colon): > 100 µM
TGI (HCT-116 colon): > 100 µM
TGI (LOX IMVI melanoma): > 100 µM
GI50 (A549 NSCLC): > 100 µM
TGI (A549 NSCLC): > 100 µM
GI50 (M14 melanoma): > 100 µM
TGI (M14 melanoma): > 100 µM
GI50 (HS 578T breast): > 100 µM
TGI (HS 578T breast): > 100 µM
GI50 (SNB-19 CNS): > 100 µM
TGI (SNB-19 CNS): > 100 µM
GI50 (NCI-H460 NSCLC): > 100 µM
TGI (NCI-H460 NSCLC): > 100 µM
GI50 (NCI-H322M lung): > 100 µM
TGI (NCI-H322M lung): > 100 µM
GI50 (786-0 renal): > 100 µM
TGI (786-0 renal): > 100 µM
GI50 (UACC-257 melanoma): > 100 µM
TGI (UACC-257 melanoma): > 100 µM
GI50 (SF-268 CNS): > 100 µM
TGI (SF-268 CNS): > 100 µM
GI50 (COLO 205 colon): > 100 µM
TGI (COLO 205 colon): > 100 µM
GI50 (HOP-92 NSCLC): > 100 µM
TGI (HOP-92 NSCLC): > 100 µM
GI50 (ACHN renal): > 100 µM
TGI (ACHN renal): > 100 µM
GI50 (UO-31 renal): > 100 µM
TGI (UO-31 renal): > 100 µM
GI50 (IGROV1 ovarian): > 100 µM
TGI (IGROV1 ovarian): > 100 µM
GI50 (TK-10 renal): > 100 µM
TGI (TK-10 renal): > 100 µM
GI50 (BT-549 breast): > 100 µM
TGI (BT-549 breast): > 100 µM
GI50 (SK-MEL-5 melanoma): > 100 µM
TGI (SK-MEL-5 melanoma): > 100 µM
GI50 (SF-295 CNS): > 100 µM
TGI (SF-295 CNS): > 100 µM
GI50 (SF-539 CNS): > 100 µM
TGI (SF-539 CNS): > 100 µM
GI50 (RPMI-8226 leukemia): 22.9 µM
TGI (RPMI-8226 leukemia): > 100 µM
GI50 (OVCAR-4 ovarian): > 100 µM
TGI (OVCAR-4 ovarian): > 100 µM
GI50 (SR leukemia): > 100 µM
TGI (SR leukemia): > 100 µM
GI50 (SN12C renal): > 100 µM
TGI (SN12C renal): > 100 µM
GI50 (A498 renal): > 100 µM
TGI (A498 renal): > 100 µM
GI50 (HL-60(TB) leukemia): > 100 µM
TGI (HL-60(TB) leukemia): > 100 µM
GI50 (OVCAR-5 ovarian): > 100 µM
TGI (OVCAR-5 ovarian): > 100 µM
GI50 (HCC-2998 colon): > 100 µM
TGI (HCC-2998 colon): > 100 µM
GI50 (HOP-62 NSCLC): > 100 µM
TGI (HOP-62 NSCLC): > 100 µM
GI50 (HT29 colon): > 100 µM
TGI (HT29 colon): > 100 µM
GI50 (MDA-MB-435 melanoma): > 100 µM
TGI (MDA-MB-435 melanoma): > 100 µM
GI50 (SW-620 colon): > 100 µM
TGI (SW-620 colon): > 100 µM
GI50 (NCI-H522 lung): > 100 µM
TGI (NCI-H522 lung): > 100 µM
GI50 (SK-MEL-28 melanoma): > 100 µM
TGI (SK-MEL-28 melanoma): > 100 µM
GI50 (MALME-3M melanoma): > 100 µM
TGI (MALME-3M melanoma): > 100 µM
GI50 (NCI-H23 lung): > 100 µM
TGI (NCI-H23 lung): > 100 µM
GI50 (SNB-75 CNS): > 100 µM
TGI (SNB-75 CNS): > 100 µM
